# Reference: patent US6369106B1 (Yissum Research Development Company of the Hebrew …, priority 1996, dated 2002)
# Experiments:
# [1] = tested on: Neuroblastoma SHSY5Y (NB) cells; test: Protection from oxidative stress in vitro, neutral red survival assay; type: cell-based; conditions: compound at 0.1 mM, 6-OHDA 0.1-0.25 mM, MPP+ 0.5-2 mM, 24 hours
# Protocol: Protection from oxidative stress in vitro: Neuroblastoma SHSY5Y (NB) cells were maintained in Dulbeco's Modified Eagle's Medium (DMEM), supplemented with 8% FCS and 8% horse serum, penicillin (25 μg/ml), streptomycin (25 μg/ml), 2 mM L-glutamine and 400 μg/ml G418 (Gibco/BRL). For protection experiments cells were subcultured (in 2% serum) to poly-L-lysine-coated 96-well microtiter plates (Nunc), 100 μl of 5×10^5 cells/ml, CEA was applied to the cells in each well and 4 hours later DA, L-dopa (levodopa), 6-OHDA and MPP+ were added for 24 hours.
# Survival was assayed by adding neutral red (0.34%, Sigma) to cells in DCCM-1 medium (0.1 ml/well, Bet-Haemek) and incubation for 2 hour at 37° C. The cells were then washed with cold PBS containing 10 mM MgCl2 and the dye was dissolved in 50% ethanol in 50% Somerson buffer (70 mM sodium citrate, 30 mM citric acid, 0.1 N HCl). ELISA reader (590 nm) was used to measure the remaining color intensity.
# [2] = Crossing the blood-brain-barrier: compound level in brain extracts by HPLC after IP injection; type: in vivo, C57BL/6J mice; conditions: mice, IP 0.25-4 mg, 15 min after injection
# Protocol: Detection of compound j (referred to in this Example also as CEA) was established using high performance liquid chromatography (HPLC). To this end, CEA was treated with a fluorescent thiolyte reagent (monobromobimane reagent) and analyzed on an HPLC column.
# Crossing the blood-brain-barrier: In vivo experiments were carried out on C57BL/6J mice (15 grams) injected IP with compound J. After incubation (15 min, 60 min or 4 hours) the mice were anesthetized with ether and blood samples were drawn. Then mice underwent perfusion with 50 ml of saline, injected into the right ventricle. The levels of compound I in the brain and in the plasma were detected by selective fluorescent labeling using high performance liquid chromatography (HPLC).
# Increasing amounts of compound J were injected IP and 15 min later, mice were perfused with saline and compound J levels in the brain extracts were determined by HPLC chromatography (FIG. 5b), as compared to a control, pure, uninjected compound J (FIG. 5a).
# [3] = tested on: GSH levels; test: Brain GSH levels after IP injection (HPLC); type: in vivo, C57BL/6J mice
compound,measurement,setting,value
CC(=O)NC(CS)C(N)=O (stereo not shown) [compound J],"Protection of NB cells against toxicity (>50%) of DA, L-dopa, 6-OHDA and MPP+",[1],protect the cells
same,"Protection of NB cells against toxicity (>50%) of DA, L-dopa, 6-OHDA and MPP+",[1]; listed as Compound J,protect NB cells
same,Compound level in the brain,[2],concentration-dependent increase
same,"Endogenous GSH levels in mice brain, effect in words",[3],increases endogenous GSH levels
